In patent US10781181B2, “N-((het) arylmethyl)-heteroaryl-carboxamides compounds as plasma kallikrein inhibitors” (Kalvista Pharmaceuticals Limited, priority 2014, dated 2020):
pIC50: −log10 of the molar value.

Columns and labels:
Human KLK1 = Human KLK1 (Homo sapiens (Human), UniProt P06870); assay: Determination of the IC50 for KLK1; assay type: biochemical; settings: human KLK1, 25° C., substrate H-DVal-Leu-Arg-AFC
Method: Determination of the IC50 for KLK1
(§1) Human KLK1 (Callbiochem) was incubated at 25° C. with the fluorogenic substrate H-DVal-Leu-Arg-AFC and various concentrations of the test compound. Residual enzyme activity (initial rate of reaction) was determined by measuring the change in […] at 410 nm and the IC50 value for the test compound was determined.

Human plasma kallikrein = Human plasma kallikrein (Homo sapiens (Human), UniProt P03952); assay: Determination of the IC50 for plasma kallikrein; assay type: biochemical; settings: read-out: IC50 (human PKal)
Chain of Human plasma kallikrein (P03952 391-638): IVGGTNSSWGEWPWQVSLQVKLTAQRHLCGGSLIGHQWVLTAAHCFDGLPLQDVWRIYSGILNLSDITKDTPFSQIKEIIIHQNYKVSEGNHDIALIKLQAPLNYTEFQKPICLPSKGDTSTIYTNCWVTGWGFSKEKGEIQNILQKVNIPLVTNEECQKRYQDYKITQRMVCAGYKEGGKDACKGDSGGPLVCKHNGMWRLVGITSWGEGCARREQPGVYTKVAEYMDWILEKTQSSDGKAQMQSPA
Chain of Human plasma kallikrein (P03952 20-390 partner): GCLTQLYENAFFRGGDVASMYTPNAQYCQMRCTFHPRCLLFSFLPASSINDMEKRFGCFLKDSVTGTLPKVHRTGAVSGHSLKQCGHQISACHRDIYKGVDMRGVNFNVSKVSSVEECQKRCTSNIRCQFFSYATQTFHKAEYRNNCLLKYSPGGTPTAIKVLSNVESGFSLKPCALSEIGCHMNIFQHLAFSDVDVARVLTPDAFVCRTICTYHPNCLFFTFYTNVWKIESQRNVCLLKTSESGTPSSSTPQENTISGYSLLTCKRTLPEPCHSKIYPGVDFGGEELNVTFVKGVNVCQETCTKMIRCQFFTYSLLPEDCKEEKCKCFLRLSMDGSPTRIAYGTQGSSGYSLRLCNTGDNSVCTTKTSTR
Method: Determination of the IC50 for Plasma Kallikrein
as §1, with “plasma kallikrein (Protogen)” for “KLK1 (Callbiochem)”, “H-DPro-Phe-Arg-AFC” for “H-DVal-Leu-Arg-AFC”

Human FXIa = Human FXIa (Homo sapiens (Human), UniProt P03951); assay: Determination of the % inhibition for FXIa; assay type: biochemical; settings: 40 μM of the test compound, human FXIa, 25° C.; read-out: % Inhibition @ 40 μM (human FXIa)
Chain of Human FXIa (P03951 388-625 limits assumed): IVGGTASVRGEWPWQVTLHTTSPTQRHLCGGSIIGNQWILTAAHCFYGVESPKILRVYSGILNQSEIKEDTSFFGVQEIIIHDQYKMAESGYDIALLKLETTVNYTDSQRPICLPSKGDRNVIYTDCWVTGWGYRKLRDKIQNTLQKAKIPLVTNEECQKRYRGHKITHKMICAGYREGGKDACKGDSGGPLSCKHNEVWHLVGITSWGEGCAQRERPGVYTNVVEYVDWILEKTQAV
Chain of Human FXIa (P03951 19-387 partner limits assumed): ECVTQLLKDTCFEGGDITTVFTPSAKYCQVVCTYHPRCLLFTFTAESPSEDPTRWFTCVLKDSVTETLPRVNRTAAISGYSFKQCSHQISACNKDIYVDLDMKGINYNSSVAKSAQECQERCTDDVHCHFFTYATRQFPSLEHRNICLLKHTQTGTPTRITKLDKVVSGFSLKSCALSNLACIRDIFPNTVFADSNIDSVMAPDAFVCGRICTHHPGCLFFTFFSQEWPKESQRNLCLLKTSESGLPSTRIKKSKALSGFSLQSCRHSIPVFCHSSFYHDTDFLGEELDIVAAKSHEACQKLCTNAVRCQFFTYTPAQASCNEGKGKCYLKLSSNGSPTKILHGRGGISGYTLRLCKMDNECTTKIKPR
Method: Determination of the % Inhibition for FXIa
Human FXIa (Enzyme Research Laboratories) was incubated at 25° C. with the fluorogenic substrate Z-Gly-Pro-Arg-AFC and 40 μM of the test compound. Residual enzyme activity (initial rate of reaction) was determined by measuring the change in […].

[1] = Pharmacokinetics following a single oral dose in rats; assay type: in vivo; settings: rat, male Sprague-Dawley rats, nominal 10 mg/kg in 10% DMSO/10% cremophor/80% SWFI, plasma, actual dose 7.6 mg/kg (Example 115), 8.4 mg/kg (Example 85)
Method: Pharmacokinetic studies of the compounds in Table 15 were performed to assess the pharmacokinetics following a single oral dose in male Sprague-Dawley rats. Two rats were given a single po dose of 5 mL/kg of a nominal 2 mg/mL (10 mg/kg) composition of test compound in 10% DMSO/10% cremophor/80% SWFI. Following dosing, blood samples were collected over a period of 24 hours. Sample times were 5, 15 and 30 minutes then 1, 2, 4, 6, 8 and 12 hours. Following collection, blood samples were centrifuged and the plasma fraction analysed for concentration of test compound by LCMS.

Chain of Human KLK1 (P06870 25-262): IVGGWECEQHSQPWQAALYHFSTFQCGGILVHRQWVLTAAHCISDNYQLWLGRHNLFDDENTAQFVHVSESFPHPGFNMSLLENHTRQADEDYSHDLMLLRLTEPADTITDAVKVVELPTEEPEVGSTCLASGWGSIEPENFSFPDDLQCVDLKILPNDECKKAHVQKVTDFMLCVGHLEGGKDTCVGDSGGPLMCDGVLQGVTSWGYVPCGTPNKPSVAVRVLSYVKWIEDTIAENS

Row | SMILES | pIC50 (Human KLK1) | pIC50 (Human plasma kallikrein) | inhibition at 40 µM (Human FXIa) [%] | Cmax [1] [ng/mL] | Tmax [1] [min]
1 | Cc1cccn(Cc2ccc(Cn3cc(C(=O)NCCOc4cccc(Cl)c4)c(N)n3)cc2)c1=O [Example 85, 3-amino-N-[2-(3-chlorophenoxy)ethyl]-1-({4-[(3-methyl-2-oxopyridin-1-yl)methyl]phenyl}methyl)pyrazole-4-carboxamide] | < 4.40 | 8.46 | 1 | 228 | 45
2 | C[C@@H](COc1cccc(Cl)c1)NC(=O)c1cn(Cc2ccc(Cn3ccccc3=O)cc2)nc1N [Example 114, 3-amino-N-[(2S)-1-(3-chlorophenoxy)propan-2-yl]-1-({4-[(2-oxopyridin-1-yl)methyl]phenyl}methyl)pyrazole-4-carboxamide] | < 4.40 | 6.85 | 0 |  | 
3 | C[C@@H](CNC(=O)c1cn(Cc2ccc(Cn3ccccc3=O)cc2)nc1N)Oc1cccc(Cl)c1 [Example 115, 3-Amino-N-[(2S)-2-(3-chlorophenoxy)propyl]-1-({4-[(2-oxopyridin-1-yl)methyl]phenyl}methyl)-pyrazole-4-carboxamide] | < 4.40 | 8.25 |  | 538 | 30
4 | C[C@H](NC(=O)c1cn(Cc2ccc(Cn3ccccc3=O)cc2)nc1N)C(=O)N(C)c1cccc(Cl)c1 [Example 116, (2S)-2-{[3-amino-1-({4-[(2-oxopyridin-1-yl)methyl]phenyl}methyl)pyrazol-4-yl]formamido}-N-(3-chlorophenyl)-N-methylpropanamide] | < 4.40 | 6.41 | 0 |  | 
5 | C[C@@H](NC(=O)c1cn(Cc2ccc(Cn3ccccc3=O)cc2)nc1N)C(=O)N(C)c1cccc(Cl)c1 [Example 117, (2R)-2-{[3-amino-1-({4-[(2-oxopyridin-1-yl)methyl]phenyl}methyl)pyrazol-4-yl]formamido}-N-(3-chlorophenyl)-N-methylpropanamide] | < 4.40 | 5.52 | 4 |  | 
